This note sets out measurements from patent US6482799B1, “Self-preserving multipurpose ophthalmic solutions incorporating a polypeptide antimicrobial” (The Regents of the University of California, priority 1999, dated 2002).

Assay [1] concerns P. aeruginosa (ATCC 9027). The experiment in a line: Protocol 3 time-dependent antimicrobial activity at one dose level. The assay is classed as cell-based, Pseudomonas aeruginosa. How it is done:
The objective of this protocol is to establish a procedure for determining the antimicrobial activity of indolicidin (e.g., L-IND) at 50 μg/ml over an extended exposure time up to 24 hours at room temperature. It is believed that this procedure more closely mimics the recommended use of lens-care products.
Exposure of the test organism to indolicidin occurs in a buffered solution for up to 24 hours with sampling for viability at different time intervals. Polypropylene 96-well microtiter plates and microcentrifuge tubes are used for exposure and dilution of indolicidin, respectively.
The following materials are used: sterile glass tubes containing 5 ml of Mueller-Hinton Broth (MHB), Mueller-Hinton agar plates, sterile 96-well polypropylene microtiter plates, and sterile polypropylene microcentrifuge tubes.
One or more of the following microorganisms are used in assays using this protocol or modification of this protocol: Pseudomonas aeruginosa (ATCC 9027), Pseudomonas aeruginosa (ATCC 27853), and S. aureus (ATCC 6538).
Five 5 ml of MHB tubes are innoculated with the tester strain(s) from MHA plates and grown overnight at 37° C. on a shaker (180 rpm). A micropipet tip is prewet for at least 2 minutes with 100 μl of the stock solution of indolicidin (e.g., L-IND). The test article is dispensed back in the stock solution vial and the pipette is reset to a volume of 10 μl. Polypropylene microcentrifuge tubes are used to dilute the stock of indolicidin (10 mg/ml) 10-fold in sterile water. To obtain a 10× solution of indolicidin with a dose level equivalent to 50 μg/ml dose level dilute 10 μl of the stock solution of indolicidin in 90 μl of sterile water. (The concentration of indolicidin in the final exposure volume of […] will be 5 μg when 10 μl of the 10× solution is added to 100 μl of bacterial suspension). The overnight cultures are washed twice in sterile saline and resuspend in appropriate buffer. The washed culture is diluted in the appropriate buffer to give an estimated 10^6 CFU/ml. Then 10 μl of the 10× test peptide dilutions are added to a predetermined number of wells in the polypropylene microtiter plate. 100 μl of the bacterial suspension is dispensed to the wells in the polypropylene microtiter plate containing the test chemical and mixed well. Controls include one well each for negative controls, i.e., bacteria only sampled at the initiation of the experiment and at the completion of the experiment. The microtiter plate is covered with aluminum foil to shield the exposure mixture from direct light and placed on the bench top at room temperature. At the end of each time interval, the mixture is diluted in an appropriate sterile buffer and plated for viable counts.
Survival is determined by counting the colonies appearing on plates after overnight incubation at 37° C. The results are expressed as CFU/ml and survival is expressed as the percent of the bacteria that survived the treatment.
The purpose of this experiment was to repeat Experiment 4 under identical conditions using P. aeruginosa 9027, with the exception of one additional time point of 60 minutes. The culture was washed 2 times in 10 mM sodium phosphate buffer, pH 7.4.
Protocol 3 was used with the modifications described above. The test organism was P. aeruginosa 9027. L-indolicidin was tested at 50 μg/ml only. Sterile water was used as a solvent for L-IND. 10 mM sodium phosphate buffer, pH 7.4 was used as a vehicle for exposure of bacteria to L-IND. Final incubation volume in polypropylene microtiter plates was 110 μl, and incubation times were 0, 1, 2, 5 and 15 and 60 minutes at room temperature.
This experiment was a repeat of Experiment 6 using the same exposure protocol, but with a prolonged exposure time, namely 24 hours, and using washed cells of an 18-hour old overnight culture of P. aeruginosa inoculated in Mueller-Hinton broth. Incubation times were 0 and 24 hours, at room temperature. […]

The test system of assay [2] is P. aeruginosa strain (ATCC 9027). The experiment in a line: Protocol 1 kill curve / MIC, 1 hour at 37° C. The assay is classed as cell-based, Pseudomonas aeruginosa. The settings on record: 6.25 μg/ml, 10 mM sodium phosphate buffer. How it is done:
This protocol is used to develop dose-response (kill) curves to calculate the minimal inhibitory concentration of an indolicidin (e.g., L-indolicidin (L-IND)) when formulated in a commercially available phosphate buffered saline (PBS) solution. In addition, for comparative purposes, kill curves are established for the following three commonly available commercial lens-care products containing different preservatives:
The stock solutions are diluted in a 2-fold fashion by transferring 1 ml of each stock solution to 1 ml of appropriate diluent in sterile glass tubes (100×13 mm). Twelve additional 2-fold dilutions are made by transferring 1 ml aliquots of each dilution to 1 ml diluent. The diluent for all commercial lens-care products is PBS. […]
Viable counts of the bacteria are performed by 10-fold serial dilutions in sterile PBS and by plating 0.1 ml aliquots on nutrient agar plates. […] The plates are incubated overnight at 37° C. and colonies are counted and recorded. […]
Survival is expressed as number of surviving bacteria (CFU/ml) for each dilution of the test article and control solutions. The lowest dose of the test article that results in complete kill of the test organism, compared to the non-exposed control, is determined to be the MIC value. […]

Take `CC[C@H](C)[C@H](N)C(=O)N[C@@H](CC(C)C)C(=O)N1CCC[C@H]1C(=O)N[C@@H](Cc1c[nH]c2ccccc12)C(=O)N[C@@H](CCCCN)C(=O)N[C@@H](Cc1c[nH]c2ccccc12)C(=O)N1CCC[C@H]1C(=O)N[C@@H](Cc1c[nH]c2ccccc12)C(=O)N[C@@H](Cc1c[nH]c2ccccc12)C(=O)N1CCC[C@H]1C(=O)N[C@@H](Cc1c[nH]c2ccccc12)C(=O)N[C@@H](CCCNC(=N)N)C(=O)N[C@@H](CCCNC(=N)N)C(N)=O` [L-indolicidin, H2N-ILPWKWPWWPWRR-CONH2]: the survival in assay [1] (50 μg/ml, 10 mM sodium phosphate buffer, 1, 2 and 5 minutes, room temperature) is on record as 100%; in assay [1] (50 μg/ml, 10 mM sodium phosphate buffer, 15 minutes) it was 19%; in assay [1] (50 μg/ml, 10 mM sodium phosphate buffer, 24 hours, room temperature), “no apparent survival”; in assay [1] (50 μg/ml, 10 mM sodium phosphate buffer, exposure time 0 hr), 1.2 × 10^6 CFU/ml; in assay [1] (50 μg/ml, 10 mM sodium phosphate buffer, exposure time 1 hr), 6.5 × 10^5 CFU/ml; in assay [1] (50 μg/ml, 10 mM sodium phosphate buffer, exposure time 2 hr), 1.1 × 10^4 CFU/ml. Further, the survival is given as 0 CFU/ml in assay [1] (50 μg/ml, 10 mM sodium phosphate buffer, exposure time 4 hr); 0 CFU/ml in assay [1] (50 μg/ml, 10 mM sodium phosphate buffer, exposure time 6 hr); 0 CFU/ml in assay [1] (50 μg/ml, 10 mM sodium phosphate buffer, exposure time 12 hr); 100% in assay [1] (50 μg/ml, 10 mM sodium phosphate buffer, up to 15 minutes); “no survival” in assay [1] (50 μg/ml, 100 mM sodium phosphate buffer pH 7.4, all time points 0-24 hours); “no detectable survival” in assay [1] (50 μ/ml, 10 mM sodium phosphate buffer, after 4 hours exposure). The same compound registered a survival in assay [2] of 59%. The survival reduction in assay [1] (50 μg/ml, 10 mM sodium phosphate buffer, 60 min) is roughly 2 logs. For the same compound, in assay [1] (50 μg/ml, 10 mM sodium phosphate buffer, as early as after 1 minute exposure, initial 2.0×10^6 CFU/ml), the log cell reduction is on record as roughly 6 log. Moreover, the viability decrease entry in assay [1] (50 μg/ml, 100 mM sodium phosphate buffer, 1 and 2 minutes) was “about 1 log”. In assay [1] (50 μg/ml, 100 mM sodium phosphate buffer, 15 and 60 minutes), the colonies on plates entry is listed as “No colonies”. For the same compound, the “colonies on plate seeded with 0.1 ml undiluted exposure mixture” value in assay [1] (50 μg/ml, 100 mM sodium phosphate buffer, 5 minutes) turned out to be 34 colonies. Also, the “Bacterial growth, Buffer and L-indolicidin 50 μg/ml” value in assay [1] (100 mM sodium phosphate buffer, incubation time 0 hr) came out at 0; in assay [1] (100 mM sodium phosphate buffer, incubation time 24 hr), 0.
